From paper PMC12396409, “Screening and hit evaluation of a microbial metabolite library against the pathogenic Plasmodium falciparum and Toxoplasma gondii parasites” (International Journal for Parasitology: Drugs and Drug …, 2025)
Where two headings read alike, the source gives them in different places. Where a SMILES comes first, the peptide text is derived from it. [ ]: non-standard residue; d: D form. d(aIle) = CC[C@H](C)[C@@H](N)C(=O)O; NMeL = CN[C@@H](CC(C)C)C(=O)O; Hiv = CC(C)[C@H](O)C(=O)O

Assays:
[1] = test system: P. falciparum 3D7 parasites; assay: P. falciparum growth inhibition assay, 1-cycle (72 h treatment), SYBR DNA staining (library screen at 2 μg/mL and dose-response); format: cell-based, Plasmodium falciparum; conditions: 72 h; for activity at 2 µg/mL: Plasmodium falciparum, 3D7
[2] = test system: P. falciparum 3D7 parasites; assay: P. falciparum growth inhibition assay, 2-cycle (120 h treatment), delayed-death screen and dose-response; format: cell-based, Plasmodium falciparum; conditions: 120 h; for activity at 2 µg/mL: Plasmodium falciparum, 3D7
[3] = test system: T. gondii RH strain (RH-Tub-eYFP) tachyzoites; assay: microbe, parasite or virus in culture; format: cell-based, Toxoplasma gondii; conditions: 72 h, 72 h; for percent parasite growth at 2 µg/mL: Toxoplasma gondii
[4] = P. falciparum, parasite screen 2 μg/mL, % growth, replicate 1
[5] = P. falciparum, parasite screen 2 μg/mL, % growth, replicate 2
[6] = T. gondii, parasite screen 2 μg/mL, % growth, replicate 1
[7] = T. gondii, parasite screen 2 μg/mL, % growth, replicate 2
[8] = library screen at 2 μg/mL, % growth, replicate 1
[9] = library screen at 2 μg/mL, % growth, replicate 2
[10] = P. falciparum, screen at 2 μg/mL, replicate 1
[11] = P. falciparum, screen at 2 μg/mL, replicate 2

Q: With `C=C(CC[C@]12O[C@H](C(=O)O)[C@@](O)(C(=O)O)[C@](C(=O)O)(O1)[C@H](OC(=O)/C=C/[C@@H](C)C[C@@H](C)CC)[C@H]2O)[C@@H](OC(C)=O)[C@H](C)Cc1ccccc1` [Zaragozic acid A] as the compound, how does the activity at 2 µg/mL ([1]; P. falciparum, screen at 2 μg/mL, replicate 1, read-out: Pf_72h_%Growth_Rep1) read?
A: Its activity at 2 µg/mL is 92.7%.

Q: What about the activity at 2 µg/mL ([1]; P. falciparum, screen at 2 μg/mL, replicate 2, read-out: Pf_72h_%Growth_Rep2) of the same compound?
A: Its activity at 2 µg/mL is 117%.

Q: And the activity at 2 µg/mL ([2]; P. falciparum, screen at 2 μg/mL, replicate 1, read-out: Pf_120h_%Growth_Rep1)?
A: Its activity at 2 µg/mL is 104%.

Q: And the activity at 2 µg/mL ([2]; P. falciparum, screen at 2 μg/mL, replicate 2, read-out: Pf_120h_%Growth_Rep2)?
A: The activity at 2 µg/mL was 107%.

Q: And the percent parasite growth at 2 µg/mL ([3]; T. gondii, screen at 2 μg/mL, replicate 1, read-out: Tg_72h_%Growth_Rep1)?
A: Its percent parasite growth at 2 µg/mL is 122%.

Q: What about the percent parasite growth at 2 µg/mL ([3]; T. gondii, screen at 2 μg/mL, replicate 2, read-out: Tg_72h_%Growth_Rep2) of the same compound?
A: The percent parasite growth at 2 µg/mL was 82.3%.

Q: For `CC[C@H](C)[C@H]1NC(=O)[C@H](C(C)C)OC(=O)[C@H](CC(C)C)N(C)C(=O)[C@H](C(C)C)NC(=O)[C@H](C(C)C)OC(=O)[C@@H](CC(C)C)NC1=O` [Sporidesmolide II] (cyclo([Hiv]V[NMeL][Hiv][d(aIle)][dL])), which Pf_72h_%Growth_Rep1 [1, 4] is on record?
A: Its Pf_72h_%Growth_Rep1 is 88.48%.

Q: What about the Pf_72h_%Growth_Rep2 [1, 5] of the same compound?
A: The Pf_72h_%Growth_Rep2 was 54.25%.

Q: What about the Pf_120h_%Growth_Rep1 [2, 4] of the same compound?
A: Its Pf_120h_%Growth_Rep1 is 86.28%.

Q: And the Pf_120h_%Growth_Rep2 [2, 5]?
A: The Pf_120h_%Growth_Rep2 was 130.73%.

Q: What about the Tg_72h_%Growth_Rep1 [3, 6] of the same compound?
A: Its Tg_72h_%Growth_Rep1 is 96.52%.

Q: And the Tg_72h_%Growth_Rep2 [3, 7]?
A: Its Tg_72h_%Growth_Rep2 is 86.44%.

Q: How did the Pf_72h_%Growth_Rep1 [1, 8] turn out when `C=C1CCO[C@]2([C@@H](O)[C@@](C)(O)COC(=O)c3ccccc3)NC(=O)[C@@]1(O)NC2=O` [Bicyclomycin benzoate] was run?
A: Its Pf_72h_%Growth_Rep1 is 94.43%.

Q: And the Pf_72h_%Growth_Rep2 [1, 9]?
A: Its Pf_72h_%Growth_Rep2 is 88.43%.

Q: And the Pf_120h_%Growth_Rep1 [2, 8]?
A: Its Pf_120h_%Growth_Rep1 is 148.77%.

Q: And the Pf_120h_%Growth_Rep2 [2, 9]?
A: Its Pf_120h_%Growth_Rep2 is 99.84%.

Q: What about the Tg_72h_%Growth_Rep1 [3, 8] of the same compound?
A: The Tg_72h_%Growth_Rep1 was 81.93%.

Q: And the Tg_72h_%Growth_Rep2 [3, 9]?
A: The Tg_72h_%Growth_Rep2 was 95.48%.

Q: For `CC(=O)c1c(O)cc(O)c(C(C)=O)c1O` [Diacetylphloroglucinol], which Pf_72h_%Growth_Rep1 [1, 8] is on record?
A: Its Pf_72h_%Growth_Rep1 is 86.52%.

Q: What about the Pf_72h_%Growth_Rep2 [1, 9] of the same compound?
A: The Pf_72h_%Growth_Rep2 was 90.35%.

Q: And the Pf_120h_%Growth_Rep1 [2, 8]?
A: Its Pf_120h_%Growth_Rep1 is 64.84%.

Q: What about the Pf_120h_%Growth_Rep2 [2, 9] of the same compound?
A: The Pf_120h_%Growth_Rep2 was 102.18%.

Q: And the Tg_72h_%Growth_Rep1 [3, 8]?
A: The Tg_72h_%Growth_Rep1 was 140.70%.

Q: And the Tg_72h_%Growth_Rep2 [3, 9]?
A: The Tg_72h_%Growth_Rep2 was 94.75%.

Q: With `CC[C@H]1OC(=O)[C@H](C)[C@@H](O[C@H]2C[C@@](C)(OC)[C@@H](O)[C@H](C)O2)[C@H](C)[C@@H](O[C@@H]2O[C@H](C)C[C@H]([N+](C)(C)[O-])[C@H]2O)[C@](C)(O)C[C@@H](C)C(=O)[C@H](C)[C@@H](O)[C@]1(C)O` [Erythromycin A N-oxide] as the compound, how does the Pf_72h_%Growth_Rep1 [1, 8] read?
A: The Pf_72h_%Growth_Rep1 was 82.02%.

Q: And the Pf_72h_%Growth_Rep2 [1, 9]?
A: The Pf_72h_%Growth_Rep2 was 85.53%.

Q: What about the Pf_120h_%Growth_Rep1 [2, 8] of the same compound?
A: The Pf_120h_%Growth_Rep1 was 82.07%.

Q: And the Pf_120h_%Growth_Rep2 [2, 9]?
A: The Pf_120h_%Growth_Rep2 was 80.30%.

Q: And the Tg_72h_%Growth_Rep1 [3, 8]?
A: Its Tg_72h_%Growth_Rep1 is 107.95%.

Q: What about the Tg_72h_%Growth_Rep2 [3, 9] of the same compound?
A: Its Tg_72h_%Growth_Rep2 is 98.15%.

Q: With `CCCCCCCCCCCCCC(=O)N[C@H]1CCOC1=O` [Tetradecanoyl-L-homoserine lactone] as the compound, how does the Pf_72h_%Growth_Rep1 [1, 10] read?
A: Its Pf_72h_%Growth_Rep1 is 70.00%.

Q: And the Pf_72h_%Growth_Rep2 [1, 11]?
A: The Pf_72h_%Growth_Rep2 was 83.15%.

Q: And the Pf_120h_%Growth_Rep1 [2, 10]?
A: The Pf_120h_%Growth_Rep1 was 140.07%.

Q: What about the Pf_120h_%Growth_Rep2 [2, 11] of the same compound?
A: Its Pf_120h_%Growth_Rep2 is 68.40%.

Q: And the Tg_72h_%Growth_Rep1 ([3]; T. gondii, screen at 2 μg/mL, replicate 1)?
A: Its Tg_72h_%Growth_Rep1 is 91.68%.

Q: What about the Tg_72h_%Growth_Rep2 ([3]; T. gondii, screen at 2 μg/mL, replicate 2) of the same compound?
A: Its Tg_72h_%Growth_Rep2 is 91.92%.

Q: `CO/C1=C\C(C)=C\[C@@H](C)[C@@H](O)[C@@H](C)C/C(C)=C/C=C/[C@H](OC)[C@@H]([C@@H](C)[C@@H](O)[C@H](C)[C@@]2(O)C[C@@H](O)[C@H](C)[C@@H](C(C)C)O2)OC1=O` [Bafilomycin A1] was tested. Which activity at 2 µg/mL ([1]; library screen at 2 μg/mL, % growth, replicate 1, read-out: Pf_72h_%Growth_Rep1) did it give?
A: Its activity at 2 µg/mL is 3.38%.

Q: And the activity at 2 µg/mL ([1]; library screen at 2 μg/mL, % growth, replicate 2, read-out: Pf_72h_%Growth_Rep2)?
A: The activity at 2 µg/mL was 2.45%.

Q: And the activity at 2 µg/mL ([2]; library screen at 2 μg/mL, % growth, replicate 1, read-out: Pf_120h_%Growth_Rep1)?
A: The activity at 2 µg/mL was 5.49%.

Q: And the activity at 2 µg/mL ([2]; library screen at 2 μg/mL, % growth, replicate 2, read-out: Pf_120h_%Growth_Rep2)?
A: Its activity at 2 µg/mL is 9.47%.

Q: And the percent parasite growth at 2 µg/mL ([3]; library screen at 2 μg/mL, % growth, replicate 1, read-out: Tg_72h_%Growth_Rep1)?
A: Its percent parasite growth at 2 µg/mL is -1.58%.

Q: What about the percent parasite growth at 2 µg/mL ([3]; library screen at 2 μg/mL, % growth, replicate 2, read-out: Tg_72h_%Growth_Rep2) of the same compound?
A: The percent parasite growth at 2 µg/mL was 0.71%.

Q: With `CC1(C)CCC[C@]2(C)[C@@H](C=O)C(C=O)=CC[C@@H]12` [Polygodial] as the compound, how does the activity at 2 µg/mL ([1]; P. falciparum, parasite screen 2 μg/mL, % growth, replicate 1, read-out: Pf_72h_%Growth_Rep1) read?
A: Its activity at 2 µg/mL is 1.12%.

Q: What about the activity at 2 µg/mL ([1]; P. falciparum, parasite screen 2 μg/mL, % growth, replicate 2, read-out: Pf_72h_%Growth_Rep2) of the same compound?
A: Its activity at 2 µg/mL is -3.71%.

Q: What about the activity at 2 µg/mL ([2]; P. falciparum, parasite screen 2 μg/mL, % growth, replicate 1, read-out: Pf_120h_%Growth_Rep1) of the same compound?
A: Its activity at 2 µg/mL is 6.02%.

Q: And the activity at 2 µg/mL ([2]; P. falciparum, parasite screen 2 μg/mL, % growth, replicate 2, read-out: Pf_120h_%Growth_Rep2)?
A: Its activity at 2 µg/mL is 28.5%.

Q: And the percent parasite growth at 2 µg/mL ([3]; T. gondii, parasite screen 2 μg/mL, % growth, replicate 1, read-out: Tg_72h_%Growth_Rep1)?
A: The percent parasite growth at 2 µg/mL was 101%.

Q: And the percent parasite growth at 2 µg/mL ([3]; T. gondii, parasite screen 2 μg/mL, % growth, replicate 2, read-out: Tg_72h_%Growth_Rep2)?
A: Its percent parasite growth at 2 µg/mL is 101%.

Q: What does the source list for `CCC1C=CC2C=C(C)C(OC3CC(C)(O)C(NC(C)=O)C(C)O3)C(C)C=C(C)C3C=CC4C(OC5CC(O)C(OC6CC(OC7CCC(O)C(C)O7)C(OC7CC(O)C(O)C(C)O7)C(C)O6)C(C)O5)C(C)CC(C)C4C3(C)C(O)=C3C(=O)OC2(C1)C3=O` (stereo not drawn) [Saccharocarcin A]?
A: Pf_72h_%Growth_Rep1 [1, 4]: 25.38%; Pf_72h_%Growth_Rep2 [1, 5]: 12.51%; Pf_120h_%Growth_Rep1 [2, 4]: 14.27%; Pf_120h_%Growth_Rep2 [2, 5]: 13.84%; Tg_72h_%Growth_Rep1 [3, 6]: -0.34%; Tg_72h_%Growth_Rep2 [3, 7]: 2.07%
